Source: patent publication US20220331458A1, “AGENTS FOR CLEAVING LABELS FROM BIOMOLECULES IN VIVO” (TAGWORKS PHARMACEUTICALS B.V., priority 2019, published 2022)
Marks after values point to notes of the source that are not given here.

Test system: radiolabeled mAb-conjugates
Assay: In vitro Label release from radiolabeled mAb-TCO-chelate conjugates incubated with Cleaving Agents (SEC)
Conditions: 37°C, 15-24 h; for release (%) without Cleaving Agent: no Cleaving Agent
Experimental: Briefly, mAb solutions in PBS (4 mg/mL final concentration) were added with 15-20 eq of the NHS-derivative (dissolved at 10 mg/mL in DMSO) and the pH was adjusted to 9 with 1M sodium carbonate. The reaction mixtures were incubated at rt in the dark for 2 h then the products were purified by dialysis (20 kDa MW cut-off membranes) in chelex-treated 0.25M NH4OAc pH 5.5.
After 15-24 h incubation the mixtures were analyzed by SEC and the amount of released Label was quantified from the radioactivity elution profile.

[1] = Label release from TCO derivative 1.8 on trastuzumab, ^111In, PBS
[2] = Label release from TCO derivative 1.8 on trastuzumab, ^111In, 50% mouse plasma in PBS
[3] = Label release from TCO derivative 1.14 on CC49, ^89Zr, PBS
[4] = Label release from TCO derivative 1.15 on CC49, ^89Zr, PBS
[5] = Label release from TCO derivative 1.17 on CC49, ^89Zr, PBS
[6] = Label release from TCO derivative 1.17 on trastuzumab, ^89Zr, PBS
[7] = Label release from TCO derivative 1.4 on trastuzumab, ^111In, 50% mouse plasma in PBS
[8] = TCO derivative conjugated to trastuzumab, ^111In, 50% mouse plasma in PBS
[9] = TCO derivative conjugated to trastuzumab, ^111In, PBS

CC(=O)N[C@H]1C(OCCOCCOCCn2cc(COCCC(=O)NCCCCC(NC(=O)CCOCc3cn(CCOCCOCCOC4O[C@H](CO)[C@H](O)[C@H](O)[C@H]4NC(C)=O)nn3)C(=O)NCc3ccc(-c4nncnn4)cc3)nn2)O[C@H](CO)[C@H](O)[C@@H]1O (stereo partly shown) [Compound 2.11, Tetrazine-bis-GalNAc]
release (%) [1]: 67.2%

c1ccc(-c2nnc(-c3ccccn3)nn2)nc1 [Compound 2.14, reference compound]
release (%) [1]: 51.5%

CC(=O)Nc1cccnc1-c1nnc(-c2ncccc2NC(C)=O)nn1 [Compound 2.4, N,N′-(2,2′-(1,2,4,5-Tetrazine-3,6-diyl)bis(pyridine-3,2-diyl))diacetamide]
release (%) [2]: 54.5^a %

Cc1nnc(-c2ncccn2)nn1 [Compound 2.19, reference compound]
release (%) [1]: 69.1%

NCc1ccc(-c2nncnn2)cc1 [Compound 2.16, reference compound]
release (%) [1]: 64.5%

O=C(O)CCCC(=O)Nc1cnccc1-c1nnc(-c2ccncc2NC(=O)CCCC(=O)O)nn1 [Compound 2.9, 5,5′-((4,4′-(1,2,4,5-Tetrazine-3,6-diyl)bis(pyridine-4,3-diyl))bis(azanediyl))bis(5-oxopentanoic acid)]
release (%) [2]: 67.0^a %

Cc1nnc(C)nn1 [Compound 2.13, reference compound]
release (%) [3]: 53.6%
release (%) [4]: 66.3%
release (%) [5]: 72.3%
release (%) [6]: 84.4%
release (%) [7]: 62.9^a %
release (%) (Label release from TCO derivative 1.4 on trastuzumab, ^177Lu, PBS): 69.5%
release (%) [1]: 71.4%
release (%) (Label release from TCO derivative 1.8 on trastuzumab, ^177Lu, PBS): 88.9%

Cc1nnc(-c2nccc(CNC(=O)CCCC(=O)NC(CO)CO)n2)nn1 [Compound 2.20]
release (%) [1]: 67.2%

CN(CC(=O)NCCOCCOCCOCCOCCNC(=O)CCC(C(=O)O)N1CCN(CC(=O)O)CCN(CC(=O)O)CCN(CC(=O)O)CC1)C(=O)O[C@@H]1/C=C/CC[C@](C)(C(=O)NCCOCCOCCOCCOCCOCCOCCOCCOCCOCCNC(=O)CCN2C(=O)C=CC2=O)CC1 (stereo partly shown) [Compound 1.8, Mal-PEG9-TCO-Sar-PEG4-DOTAGA]
release (%) without Cleaving Agent [8]: 6.6%
release (%) without Cleaving Agent [9]: 5.8%

Oc1cnccc1-c1nnc(-c2ccncc2O)nn1 [Compound 2.2, 4,4′-(1,2,4,5-Tetrazine-3,6-diyl)bis(pyridin-3-ol)]
release (%) [3]: 60.3%
release (%) [4]: 65.8%
release (%) [5]: 87.2%
release (%) [6]: 61.4%
release (%) (Label release from TCO derivative 1.4 on trastuzumab, ^111In, PBS): 69.5%
release (%) [1]: 81.6%

C[C@]1(C(=O)ON2C(=O)CCC2=O)CC/C=C/[C@@H](OC(=O)NCCNC(=O)CCC(C(=O)O)N2CCN(CC(=O)O)CCN(CC(=O)O)CCN(CC(=O)O)CC2)CC1 (stereo partly shown) [Compound 1.4, NHS-TCO-C2-DOTAGA]
release (%) without Cleaving Agent [8]: 7.1%
release (%) without Cleaving Agent [9]: 6.8%

O=C(CCCC(=O)Nc1cccnc1-c1nnc(-c2ncccc2NC(=O)CCCC(=O)NCCOCCOCCOCCOCCOCCOCCOCCOCCOCCO)nn1)NCCOCCOCCOCCOCCOCCOCCOCCOCCOCCO [Compound 2.8, N^1,N^1′-(2,2′-(1,2,4,5-Tetrazine-3,6-diyl)bis(pyridine-3,2-diyl))bis(N^5-(29-hydroxy-3,6,9,12,15,18,21,24,27-nonaoxanonacosyl)glutaramide)]
release (%) [2]: 60.6%
release (%) [1]: 79.9%

CC(=O)N(O)CCCCCNC(=O)CCC(=O)N(O)CCCCCNC(=O)CCC(=O)N(O)CCCCCNC(=O)CN(C)C(=O)O[C@@H]1/C=C/CC[C@](C)(C(=O)ON2C(=O)CCC2=O)CC1 [Compound 1.15, NHS-TCO-Sar-DFO]
release (%) without Cleaving Agent (TCO derivative conjugated to CC49, ^89Zr, PBS): 7.3%

Oc1cccnc1-c1nnc(-c2ncccc2O)nn1 [Compound 2.1, 2,2′-(1,2,4,5-Tetrazine-3,6-diyl)bis(pyridin-3-ol)]
release (%) [3]: 53.0%
release (%) [4]: 62.3%
release (%) (Label release from TCO derivative 1.17 on CC49, ^89Zr, 50% mouse plasma in PBS): 81.3%
release (%) [5]: 88.0%
release (%) [6]: 88.9%
release (%) (Label release from TCO derivative 1.2 on CC49, ^111In, PBS): 80.3%
release (%) (Label release from TCO derivative 1.2 on cetuximab, ^111In, PBS): 85.7%
release (%) (Label release from TCO derivative 1.2 on girentuximab, ^111In, PBS): 83.2%
release (%) (Label release from TCO derivative 1.2 on rituximab, ^111In, PBS): 77.9%
release (%) (Label release from TCO derivative 1.2 on trastuzumab, ^111In, 50% mouse plasma in PBS): 88.1%
release (%) (Label release from TCO derivative 1.2 on trastuzumab, ^111In, PBS): 78.2%
release (%) [7]: 81.8^a %
release (%) (Label release from TCO derivative 1.6 on trastuzumab, ^111In, 50% mouse plasma in PBS): 68.9%
release (%) (Label release from TCO derivative 1.6 on trastuzumab, ^111In, PBS): 83.6%
release (%) (Label release from TCO derivative 1.7 on trastuzumab, ^111In, 50% mouse plasma in PBS): 63.4%
release (%) (Label release from TCO derivative 1.7 on trastuzumab, ^111In, PBS): 78.9%
release (%) [2]: 77.0%
release (%) [1]: 86.4%
